In ChEMBL document CHEMBL1687771 (Antimicrob Agents Chemother, 2010):
Converted amounts (≈) assume the structure as drawn. The source made the active and inactive calls. The calls are words filed in the database; no cut-off is given here.

Experiments:
Bacillus anthracis [1] = assay: Antimicrobial activity against Bacillus anthracis Ames infected in BALB/c mouse anthrax spore inhalation infection model assessed as decrease in tissue bacterial burden at 50 mg/kg, sc bid for 14 days administered 24 hrs post bacterial challenge measured 43 days post bacterial challenge; type: functional, organism-based; set-up: dose 50 mg/kg
Bacillus anthracis [2] = assay: Antimicrobial activity against Bacillus anthracis Ames by CLSI broth microdilution method; type: functional
Bacillus anthracis [3] = assay: Antimicrobial activity against Bacillus anthracis Ames infected in BALB/c mouse anthrax spore inhalation infection model assessed as decrease in tissue bacterial burden at 50 mg/kg, sc bid for 21 days administered 24 hrs post bacterial challenge measured 43 days post bacterial challenge; type: functional, organism-based; set-up: dose 50 mg/kg
Mus musculus [4] = assay: AUC at 24 hrs in Bacillus anthracis Ames infected in BALB/c mouse anthrax spore inhalation infection model at 50 mg/kg, sc bid for 14 days administered 24 hrs post bacterial challenge; type: functional, organism-based; set-up: dose 50 mg/kg
Mus musculus [5] = assay: AUC in Bacillus anthracis Ames infected in BALB/c mouse anthrax spore inhalation infection model at 50 mg/kg, sc bid for 14 days administered 24 hrs post bacterial challenge; type: functional, organism-based; set-up: dose 50 mg/kg

With `CCCCCCCCCC(=O)N[C@@H](Cc1c[nH]c2ccccc12)C(=O)N[C@H](CC(N)=O)C(=O)N[C@@H](CC(=O)O)C(=O)N[C@@H]1C(=O)NCC(=O)N[C@@H](CCCN)C(=O)N[C@@H](CC(=O)O)C(=O)N[C@H](C)C(=O)N[C@@H](CC(=O)O)C(=O)NCC(=O)N[C@H](CO)C(=O)N[C@@H]([C@H](C)CC(=O)O)C(=O)N[C@@H](CC(=O)c2ccccc2N)C(=O)O[C@@H]1C` as the molecule, how does the Activity (Bacillus anthracis [1]) read?
The Activity was “Active”.

What about the MIC50 (Bacillus anthracis [2]) of the same molecule?
The MIC50 was 2 µg/mL (≈ 1.23 µM).

What about the MIC90 (Bacillus anthracis [2]) of the same molecule?
Its MIC90 is 4 µg/mL (≈ 2.47 µM).

What about the Activity (Bacillus anthracis [3]) of the same molecule?
The Activity was “Active”.

What about the AUC (Mus musculus [4]) of the same molecule?
The AUC was 750000 ng·h/mL.

And the AUC (Mus musculus [5])?
Its AUC is over 375000 ng·h/mL.
